This test has as its system adult sexual mature male Sprague-Dawley rats. Nature of the test: Efficacy test of the drug for anti-Erectile Dysfunction (copulation test). The following applies: for Catching times / Latent period of catch behavior / Riding times: intragastric administration. It is filed as in vivo, rat.
Where [1] appears, read: male Sprague-Dawley rats, dosage 4.4 mg/kg bw.
[2] abbreviates: animal experiments, in comparison with Sildenafil.
The mark [3] stands for this setting: male Sprague-Dawley rats, dosage 2.2 mg/kg bw.
[4] abbreviates: male Sprague-Dawley rats, dosage 8.8 mg/kg bw.

Turning to `CCCc1nn(C)c2c(=O)[nH]c(-c3cc(S(=O)(=O)N4CCN(C)CC4)ccc3OCC)nc12` [Sildenafil, reference compound], under setting [1], the Catching times was found to be 27 ± 6 times, the “Latent period of catch behavior” value amounted to 12.5 ± 6.5 s and the Riding times is 24 ± 7 times.
On to `CCCc1nn(C)c2c(=O)[nH]c(-c3cc(S(=O)(=O)N4CCCN(C)CC4)ccc3OCC)nc12.O=C(O)CC(O)(CC(=O)O)C(=O)O` [ED9001, 5-[2-ethoxy-5-(4-methyl-1-homopiperazinylsulfonyl)]-phenyl-1-methyl-3-n-propyl-1,6-dihydro-7H-pyrazolo[4,3-d]pyrimidine-7-one citrate], for which, under setting [2], the Effective drug duration result is given as “longer” and the Onset time entry was “shorter”. For the same compound, under “male Sprague-Dawley rats, P<0.05”, the “Effect on catching times in comparison with the solution control group” value was “distinct effect on improving catching times”. Besides, under setting [3], the Catching times amounted to 31 ± 9 times, the “Latent period of catch behavior” value stood at 12.1 ± 3.6 s and the Riding times was determined as 24 ± 7 times. Under setting [1], the Catching times was determined as 26 ± 9 times, the “Latent period of catch behavior” value is 14.4 ± 7.5 s and the Riding times was 21 ± 7 times. Under setting [4], the Catching times was 32 ± 9 times, the “Latent period of catch behavior” value worked out at 14.2 ± 4.9 s and the Riding times is recorded as 27 ± 10 times.

The record behind these values is patent publication US9221825B2, “Pyrazolopyrimidinone compound and imidazo triazone compound for treating erectile dysfunction” (Zhejiang Dade Pharmaceutical Group Co., Ltd., priority 2011, dated 2015).
